“And” between values parts separate entries of the source, which are not always exact repeats. Identical values can stand only once. Toxic doses and inconclusive results are not listed.
System: BDF1 mice, P388 leukemia ip, median survival T/C
Experiment: NCI In Vivo Anticancer Drug Screen. Data for tumor model P388 Leukemia (intraperitoneal) in B6D2F1 (BDF1) mice
Conditions: endpoint: median survival time, higher = longer survival
Procedure, shortened: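 In tumour-bearing mice, survival after compound treatment is set against the vehicle group and given as a quotient.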

[1] = dose: 50.0 mg/kg/injection, schedule: Q04DX003 (ip), vehicle: saline with Tween-80
[2] = dose: 100.0 mg/kg/injection, schedule: Q04DX003 (ip), vehicle: saline with Tween-80
[3] = dose: 200.0 mg/kg/injection, schedule: Q04DX003 (ip), vehicle: saline with Tween-80
[4] = dose: 50.0 mg/kg/injection, schedule: Q01DX009 (ip), vehicle: saline with Tween-80
[5] = dose: 100.0 mg/kg/injection, schedule: Q01DX009 (ip), vehicle: saline with Tween-80
[6] = dose: 66.0 mg/kg/injection, schedule: Q04DX003 (ip), vehicle: saline with Tween-80
[7] = dose: 150.0 mg/kg/injection, schedule: Q04DX003 (ip), vehicle: saline with Tween-80
[8] = dose: 200.0 mg/kg/injection, schedule: Q01DX009 (ip), vehicle: saline with Tween-80
[9] = dose: 6.25 mg/kg/injection, schedule: Q01DX009 (ip), vehicle: saline with Tween-80
[10] = dose: 12.5 mg/kg/injection, schedule: Q01DX009 (ip), vehicle: saline with Tween-80
[11] = dose: 25.0 mg/kg/injection, schedule: Q01DX009 (ip), vehicle: saline with Tween-80
[12] = dose: 400.0 mg/kg/injection, schedule: Q01DX009 (ip), vehicle: saline with Tween-80

SMILES: O=C(Nc1ccccc1F)Nc1cccc2ccccc12
- T/C (dose: 100.0 mg/kg/injection, schedule: Q01DX001 (ip), vehicle: saline with Tween-80): 100 % of control
- T/C (dose: 200.0 mg/kg/injection, schedule: Q01DX001 (ip), vehicle: saline with Tween-80): 100 % of control
- T/C (dose: 400.0 mg/kg/injection, schedule: Q01DX001 (ip), vehicle: saline with Tween-80): 90 % of control

SMILES: CCOc1ccc(Nc2cc([N+](=O)[O-])ccc2C(=O)O)cc1
- T/C [1]: 100 % of control
- T/C [2]: 90 % of control
- T/C [3]: 90 % of control

SMILES: NCc1cc(=O)[nH]o1
- T/C (dose: 2.5 mg/kg/injection, schedule: Q01DX005 (ip), vehicle: saline): 98 % of control
- T/C (dose: 5.0 mg/kg/injection, schedule: Q01DX005 (ip), vehicle: saline): 106 % of control

SMILES: O=C1NNC2CCCCC2O1 (configuration not stated)
- T/C [4]: 94 % of control
- T/C [5]: 90 % of control

SMILES: O=C(O)C(CSC(c1ccccc1)(c1ccccc1)c1ccccc1)N=Cc1ccccc1O (configuration not stated)
- T/C [4]: 159 % of control
- T/C [6]: 104 % of control
- T/C [5]: 186 % of control
- T/C [2]: 190 % of control
- T/C [7]: 177 % of control
- T/C [8]: 272 % of control

SMILES: CC1(C)N=C(N)N=C(N)N1c1cccc(OCCOc2cccc(NC(=O)CBr)c2)c1
- T/C (dose: 5.0 mg/kg/injection, schedule: Q01DX009 (ip), vehicle: saline): 90 % of control and 100 % of control
- T/C (dose: 5.0 mg/kg/injection, schedule: Q04DX003 (ip), vehicle: saline): 100 % of control
- T/C (dose: 10.0 mg/kg/injection, schedule: Q01DX009 (ip), vehicle: saline): 95 % of control and 100 % of control
- T/C (dose: 10.0 mg/kg/injection, schedule: Q04DX003 (ip), vehicle: saline): 100 % of control
- T/C (dose: 13.0 mg/kg/injection, schedule: Q01DX009 (ip), vehicle: saline): 104 % of control and 110 % of control
- T/C (dose: 20.0 mg/kg/injection, schedule: Q04DX003 (ip), vehicle: saline): 100 % of control
- T/C (dose: 45.0 mg/kg/injection, schedule: Q01DX009 (ip), vehicle: saline): 100 % of control

SMILES: CN=C1C=C(NC)C(F)(F)C1(F)F
- T/C [9]: 95 % of control
- T/C [10]: 100 % of control
- T/C (dose: 12.5 mg/kg/injection, schedule: Q04DX003 (ip), vehicle: Klucel (hydroxypropylcellulose) (HPC)): 100 % of control
- T/C [11]: 100 % of control
- T/C (dose: 25.0 mg/kg/injection, schedule: Q04DX003 (ip), vehicle: Klucel (hydroxypropylcellulose) (HPC)): 100 % of control

SMILES: O=C1c2ccccc2-c2c(Br)c3ccccc3c(=O)n21
- T/C [4]: 105 % of control
- T/C [5]: 105 % of control
- T/C [8]: 117 % of control
- T/C [12]: 101 % of control

SMILES: CC(=O)c1c(C)[nH]c(C(=O)OC(C)(C)C)c1C
- T/C (dose: 100.0 mg/kg/injection, schedule: Q01DX001 (ip), vehicle: Klucel (hydroxypropylcellulose) (HPC)): 113 % of control
- T/C (dose: 200.0 mg/kg/injection, schedule: Q01DX001 (ip), vehicle: Klucel (hydroxypropylcellulose) (HPC)): 100 % of control
- T/C (dose: 400.0 mg/kg/injection, schedule: Q01DX001 (ip), vehicle: Klucel (hydroxypropylcellulose) (HPC)): 109 % of control

SMILES: Nc1ncnc2[nH]ncc12
- T/C (dose: 1.5 mg/kg/injection, schedule: Q01DX010 (ip), vehicle: saline): 90 % of control
- T/C (dose: 3.0 mg/kg/injection, schedule: Q01DX010 (ip), vehicle: saline): 104 % of control and 115 % of control
- T/C (dose: 6.0 mg/kg/injection, schedule: Q01DX010 (ip), vehicle: saline): 100 % of control
- T/C (dose: 12.0 mg/kg/injection, schedule: Q01DX010 (ip), vehicle: saline): 109 % of control and 110 % of control

SMILES: NNC(=O)C(=O)NCc1ccco1
- T/C [4]: 98 % of control

SMILES: CCOc1ccc(/C=N/Nc2ccc([N+](=O)[O-])cc2)cc1OC
- T/C [5]: 100 % of control
- T/C [8]: 115 % of control
- T/C [12]: 115 % of control

SMILES: CC([OH2+])CNCCN.CC([OH2+])CNCCN.[Cu+2].[O-][Cl+3]([O-])([O-])[O-] (configuration not stated)
- T/C (dose: 12.5 mg/kg/injection, schedule: Q01DX009 (ip), vehicle: saline): 108 % of control
- T/C (dose: 25.0 mg/kg/injection, schedule: Q01DX009 (ip), vehicle: saline): 115 % of control
- T/C (dose: 50.0 mg/kg/injection, schedule: Q01DX009 (ip), vehicle: saline): 114 % of control

SMILES: CCCCCCC(=O)/C=C/c1ccc(N(C)C)cc1
- T/C [5]: 97 % of control
- T/C [8]: 97 % of control
- T/C [12]: 93 % of control

SMILES: Cc1noc(N)c1N
- T/C (dose: 100.0 mg/kg/injection, schedule: Q01DX009 (ip), vehicle: water): 110 % of control
- T/C (dose: 100.0 mg/kg/injection, schedule: Q04DX003 (ip), vehicle: water): 109 % of control
- T/C (dose: 200.0 mg/kg/injection, schedule: Q01DX009 (ip), vehicle: water): 110 % of control and 117 % of control
- T/C (dose: 200.0 mg/kg/injection, schedule: Q04DX003 (ip), vehicle: water): 100 % of control
- T/C (dose: 400.0 mg/kg/injection, schedule: Q01DX009 (ip), vehicle: water): 106 % of control
- T/C (dose: 400.0 mg/kg/injection, schedule: Q04DX003 (ip), vehicle: water): 100 % of control
- T/C (dose: 600.0 mg/kg/injection, schedule: Q01DX009 (ip), vehicle: water): 122 % of control

SMILES: CN(C)c1cc(=O)c2c(ccc3ccccc32)o1
- T/C [9]: 117 % of control
- T/C [10]: 97 % of control
- T/C [11]: 106 % of control
- T/C [4]: 106 % of control

SMILES: O=C1Cc2ccc3c(c2O1)C(=O)c1ccccc1C3=O
- T/C (dose: 100.0 mg/kg/injection, schedule: Q04DX002 (ip), vehicle: saline with Tween-80): 106 % of control
- T/C (dose: 200.0 mg/kg/injection, schedule: Q04DX002 (ip), vehicle: saline with Tween-80): 100 % of control

SMILES: CCOC(=O)C1(C)CCCC1=O (configuration not stated)
- T/C (dose: 12.5 mg/kg/injection, schedule: Q04DX003 (ip), vehicle: saline): 100 % of control
- T/C (dose: 25.0 mg/kg/injection, schedule: Q04DX003 (ip), vehicle: saline): 95 % of control
- T/C (dose: 50.0 mg/kg/injection, schedule: Q04DX003 (ip), vehicle: saline): 90 % of control

SMILES: c1ccc([I+]c2ccccc2)cc1
- T/C (dose: 1.0 mg/kg/injection, schedule: Q01DX009 (ip), vehicle: saline): 100 % of control
- T/C (dose: 2.0 mg/kg/injection, schedule: Q01DX009 (ip), vehicle: saline): 104 % of control
- T/C (dose: 4.0 mg/kg/injection, schedule: Q01DX009 (ip), vehicle: saline): 90 % of control
- T/C (dose: 12.5 mg/kg/injection, schedule: Q04DX003 (ip), vehicle: saline sonified): 115 % of control
- T/C (dose: 12.5 mg/kg/injection, schedule: Q04DX003 (sc), vehicle: olive oil, sesame oil, peanut oil): 96 % of control
- T/C (dose: 25.0 mg/kg/injection, schedule: Q04DX003 (sc), vehicle: olive oil, sesame oil, peanut oil): 100 % of control

SMILES: CCOC(=O)c1cnn(C(N)=S)c1N
- T/C [4]: 90 % of control
- T/C [1]: 104 % of control
- T/C [6]: 104 % of control
- T/C [2]: 90 % of control and 104 % of control
- T/C [7]: 90 % of control
- T/C [3]: 100 % of control

SMILES: O=C(COc1ccc(Cl)cc1)C1CSc2ccc(Br)cc21 (configuration not stated)
- T/C (dose: 100.0 mg/kg/injection, schedule: Q04DX003 (ip), vehicle: saline sonified): 90 % of control
- T/C (dose: 200.0 mg/kg/injection, schedule: Q04DX003 (ip), vehicle: saline sonified): 95 % of control
- T/C (dose: 400.0 mg/kg/injection, schedule: Q04DX003 (ip), vehicle: saline sonified): 95 % of control

SMILES: Cc1cc(C)c(CCO)c(C)c1
- T/C (dose: 0.37 mg/kg/injection, schedule: Q01DX009 (ip), vehicle: DMSO): 113 % of control
- T/C (dose: 0.75 mg/kg/injection, schedule: Q01DX009 (ip), vehicle: DMSO): 113 % of control
- T/C (dose: 1.5 mg/kg/injection, schedule: Q01DX009 (ip), vehicle: DMSO): 95 % of control
- T/C (dose: 3.0 mg/kg/injection, schedule: Q01DX009 (ip), vehicle: DMSO): 88 % of control and 109 % of control
- T/C (dose: 12.0 mg/kg/injection, schedule: Q01DX009 (ip), vehicle: DMSO): 92 % of control
- T/C (dose: 25.0 mg/kg/injection, schedule: Q04DX003 (ip), vehicle: DMSO): 88 % of control
- T/C (dose: 50.0 mg/kg/injection, schedule: Q04DX003 (ip), vehicle: DMSO): 88 % of control

Reference: PubChem BioAssay AID328 (DTP/NCI, 2004)
